# Data taken from ChEMBL document CHEMBL1152711, “Synthesis and SAR of potent LXR agonists containing an indole pharmacophore” (Bioorg Med Chem Lett, 2009).
# Columns and labels:
# [1] = target: T1, Oxysterols receptor LXR-alpha (Homo sapiens) (UniProt Q13133); assay: Agonist activity at LXRalpha by FRET assay relative to GW-3965A; type: functional
# T1 sequence (whole entry): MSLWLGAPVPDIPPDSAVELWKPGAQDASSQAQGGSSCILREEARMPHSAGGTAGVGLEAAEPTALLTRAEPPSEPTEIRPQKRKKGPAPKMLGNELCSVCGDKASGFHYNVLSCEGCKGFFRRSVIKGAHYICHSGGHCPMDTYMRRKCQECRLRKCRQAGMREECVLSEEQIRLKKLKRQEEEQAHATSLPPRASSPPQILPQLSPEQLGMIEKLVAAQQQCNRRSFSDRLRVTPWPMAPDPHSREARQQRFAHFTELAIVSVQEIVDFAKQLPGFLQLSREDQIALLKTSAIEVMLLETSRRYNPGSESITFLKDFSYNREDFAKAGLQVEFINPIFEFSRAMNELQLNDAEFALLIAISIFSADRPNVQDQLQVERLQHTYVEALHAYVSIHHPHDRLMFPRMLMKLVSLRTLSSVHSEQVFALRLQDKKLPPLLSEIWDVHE
# [2] = target: T2, Oxysterols receptor LXR-beta (Homo sapiens) (UniProt P55055); assay: Agonist activity at LXRbeta by FRET assay relative to GW-3965A; type: functional; set-up: concentration or dose not given beside the values
# T2 sequence (whole entry): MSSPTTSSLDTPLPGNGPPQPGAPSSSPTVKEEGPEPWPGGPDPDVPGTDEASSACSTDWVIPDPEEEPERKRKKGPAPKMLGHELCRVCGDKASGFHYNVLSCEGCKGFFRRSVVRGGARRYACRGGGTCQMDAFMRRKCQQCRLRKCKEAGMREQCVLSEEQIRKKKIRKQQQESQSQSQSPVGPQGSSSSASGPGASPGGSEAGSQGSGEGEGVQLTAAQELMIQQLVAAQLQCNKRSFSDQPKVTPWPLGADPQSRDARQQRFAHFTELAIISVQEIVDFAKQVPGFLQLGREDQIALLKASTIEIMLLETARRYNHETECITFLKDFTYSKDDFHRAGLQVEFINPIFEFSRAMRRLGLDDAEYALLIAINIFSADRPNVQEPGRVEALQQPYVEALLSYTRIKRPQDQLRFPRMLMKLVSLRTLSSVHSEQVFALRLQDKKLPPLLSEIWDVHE
# [3] = target: T3, Oxysterols receptor LXR-alpha (Homo sapiens, UniProt Q13133); assay: Agonist activity at LXRalpha by FRET assay; type: functional
# T3 sequence (Q13133 whole entry): T1 sequence (whole entry)
# [4] = target: T4, Oxysterols receptor LXR-beta (Homo sapiens, UniProt P55055); assay: Agonist activity at LXRbeta by FRET assay; type: functional
# T4 sequence (P55055 whole entry): T2 sequence (whole entry)
# [5] = species: Mus musculus; assay: Increase in ABCA1 expression in mouse macrophages by cholesterol efflux assay
# [6] = Cmax in Sprague-Dawley rat at 2.1 mg/kg, po; type: ADME, organism-based; set-up: dose 2.1 mg/kg, route oral; conditions: in vivo
# [7] = Oral bioavailability in Sprague-Dawley rat at 2.1 mg/kg; type: ADME, organism-based; conditions: in vivo
# [8] = Plasma clearance in Sprague-Dawley rat at 1.1 mg/kg, iv or 2.1 mg/kg, po; type: ADME, organism-based
# [9] = Volume of distribution at steady state in Sprague-Dawley rat at 1.1 mg/kg, iv or 2.1 mg/kg, po; type: ADME, organism-based; conditions: in vivo, read-out: Vdss
# [10] = Half life in Sprague-Dawley rat at 1.1 mg/kg, iv; type: ADME, organism-based; set-up: dose 1.1 mg/kg, route intravenous; conditions: in vivo
# [11] = Half life in Sprague-Dawley rat at 2.1 mg/kg, po; type: ADME, organism-based; set-up: dose 2.1 mg/kg, route oral; conditions: in vivo
SMILES,Activity [1] [%],Activity [2] [%],EC50 [3] [nM],EC50 [4] [nM],EC50 [5] [nM],Cmax [6] [ng/mL],bioavailability [7] [%],clearance [8] [mL/min/kg],Vd [9] [L/kg],half-life [10] [h],half-life [11] [h]
Cn1ccc2c(OCCCN(Cc3cccc(C(F)(F)F)c3Cl)CC(c3ccccc3)c3ccccc3)cccc21,57,86,39,12,–,–,–,–,–,–,–
CS(=O)(=O)n1ccc2c(OCCCN(Cc3cccc(C(F)(F)F)c3Cl)CC(c3ccccc3)c3ccccc3)cccc21,50,72,20,7,–,–,–,–,–,–,–
Cc1cc(OCCCN(Cc2cccc(C(F)(F)F)c2Cl)CC(c2ccccc2)c2ccccc2)n2ncnc2n1,25,33,790,560,–,–,–,–,–,–,–
O=C(O)Cc1cccc(OCCCN(Cc2cccc(C(F)(F)F)c2Cl)CC(c2ccccc2)c2ccccc2)c1,–,–,–,25,50,–,–,–,–,–,–
Cc1cc(OCCCN(Cc2cccc(C(F)(F)F)c2Cl)CC(c2ccccc2)c2ccccc2)n[nH]1,25,30,23,15,–,–,–,–,–,–,–

# Continued by falling EC50 [4], values first:
Activity [1] [%],Activity [2] [%],EC50 [3] [nM],EC50 [4] [nM],EC50 [5] [nM],Cmax [6] [ng/mL],bioavailability [7] [%],clearance [8] [mL/min/kg],Vd [9] [L/kg],half-life [10] [h],half-life [11] [h],SMILES
–,25,> 3000,510,–,–,–,–,–,–,–,Cc1cc(C)c2c(OCCCN(Cc3cccc(C(F)(F)F)c3Cl)CC(c3ccccc3)c3ccccc3)n[nH]c2n1
19,36,630,288,–,–,–,–,–,–,–,COC(=O)Cc1c[nH]c2ccc(OCCCN(Cc3cccc(C(F)(F)F)c3Cl)CC(c3ccccc3)c3ccccc3)cc12
17,44,110,60,–,–,–,–,–,–,–,FC(F)(F)c1cccc(CN(CCCOc2n[nH]c3ccccc23)CC(c2ccccc2)c2ccccc2)c1Cl
65,68,63,26,–,–,–,–,–,–,–,COC(=O)c1cc(OCCCN(Cc2cccc(C(F)(F)F)c2Cl)CC(c2ccccc2)c2ccccc2)no1
36,78,226,23,–,–,–,–,–,–,–,FC(F)(F)c1cccc(CN(CCCOc2ccc3[nH]ccc3c2)CC(c2ccccc2)c2ccccc2)c1Cl
90,104,60,15,5,–,–,–,–,–,–,FC(F)(F)c1cccc(CN(CCCOc2cccc3[nH]ccc23)CC(c2ccccc2)c2ccccc2)c1Cl
132,105,14,4,15,1810,45.4,14.6,1.15,1.35,2.9,O=C(O)Cn1ccc2c(OCCCN(Cc3cccc(C(F)(F)F)c3Cl)CC(c3ccccc3)c3ccccc3)cccc21
